Publication PMC11851430, “Workflow for E3 Ligase Ligand Validation for PROTAC Development” (ACS Chemical Biology, 2025)

Columns and labels:
Assay in all cases: TMT-labeled quantitative proteomics
Format in all cases: cell-based
[1] = target: T1, kinase protein levels in MCF-7 cells (Homo sapiens, UniProt A0A024RBG1); settings: protein NUDT4B; MCF7; 1 µM; set2
T1 construct: endogenous in cells; host or cells: MCF-7

[2] = target: T2, kinase protein levels in MCF-7 cells (Homo sapiens, UniProt A0A0U1RRE5); settings: protein NBDY; MCF7; 1 µM; set2
T2 construct: endogenous in cells; host or cells: MCF-7
T2 sequence (A0A0U1RRE5 1-68): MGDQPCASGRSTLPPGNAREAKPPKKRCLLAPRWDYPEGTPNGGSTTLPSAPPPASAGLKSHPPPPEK

[3] = target: T3, kinase protein levels in MCF-7 cells (Homo sapiens, UniProt P0DPI2); settings: protein GATD3; MCF7; 1 µM; set2
T3 construct: endogenous in cells; host or cells: MCF-7
T3 sequence (P0DPI2 42-268): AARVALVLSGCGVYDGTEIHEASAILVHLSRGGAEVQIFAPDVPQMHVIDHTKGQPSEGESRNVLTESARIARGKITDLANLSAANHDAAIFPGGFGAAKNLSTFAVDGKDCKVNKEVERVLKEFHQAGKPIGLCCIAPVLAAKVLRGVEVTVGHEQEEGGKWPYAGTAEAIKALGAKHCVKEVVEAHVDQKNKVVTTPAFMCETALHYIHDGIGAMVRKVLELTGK

T1 sequence (A0A024RBG1 whole entry): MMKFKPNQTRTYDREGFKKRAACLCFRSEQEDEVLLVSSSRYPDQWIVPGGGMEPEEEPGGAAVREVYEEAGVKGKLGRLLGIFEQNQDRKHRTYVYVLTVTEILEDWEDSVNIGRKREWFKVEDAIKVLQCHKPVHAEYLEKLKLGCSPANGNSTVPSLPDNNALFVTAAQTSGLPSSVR

Compound | P.Value (compound/DMSO) [1] | log2FC (compound/DMSO) [1] | P.Value (compound/DMSO) [2] | log2FC (compound/DMSO) [2] | P.Value (compound/DMSO) [3] | log2FC (compound/DMSO) [3]
CC(=O)N[C@H](C(=O)N1C[C@H](O)C[C@H]1C(=O)NCc1ccc(-c2scnc2C)cc1OCCOCCOCCOCCNC(=O)c1cc(Nc2cc(C3CC3)[nH]n2)nc(Nc2ccc(CC#N)cc2)n1)C(C)(C)C [5-b] | 0.01265 | -0.4511 | 0.05637 | -0.3112 | 0.01692 | -0.3786
CC(=O)N[C@H](C(=O)N1C[C@H](O)C[C@H]1C(=O)NCc1ccc(-c2scnc2C)cc1OCCOCCOCCOCCOCCC(=O)N1CCN(c2ccc(Nc3ncc(Cl)c(Nc4ccccc4C(N)=O)n3)cc2)CC1)C(C)(C)C [6-e] | 0.2879 | 0.1111 | 0.09776 | 0.2849 | 0.4778 | 0.0741
